Source: the SangsterLogP compilation

`O=C(N[C@H]1C[C@@H](C(F)F)C1)c1ccccc1` showed a logP of 1.98.
Compound `O=C(NC1CC1(F)F)c1ccccc1` (configuration not stated) has a logP of 1.51.
In the case of `CCNC(=O)c1ccccc1`, the logP is reported as 1.31.
Work on `O=C(c1ccccc1)N1CC2CC(F)(F)CC(C1)C2(F)F` yielded a logP of 1.84.
Compound `O=C(c1ccccc1)N1C[C@H](F)C[C@H](F)C1` has a logP of 0.58.
Work on `O=C(c1ccccc1)N1CCC(F)C1` (configuration not stated) yielded a logP of 0.91.
Work on `O=C(N[C@H]1C[C@H](C(F)F)C1)c1ccccc1` yielded a logP of 1.97.
Compound `O=C(c1ccccc1)N1CCCCC1C(F)F` (configuration not stated) has a logP of 2.04.
`O=C(c1ccccc1)N1CCC1` gave a logP of 1.13.
`O=C(Nc1ccccc1)C12CC(C(F)(F)F)(CO1)C2` gave a logP of 2.05.
Work on `O=C(c1ccccc1)N1CCC(F)(F)C1` yielded a logP of 1.35.
With `O=C(NC1CC1)c1ccccc1` the logP was 1.29.
In the case of `O=C(N[C@H]1C[C@H]1C(F)(F)F)c1ccccc1`, the logP is reported as 2.16.
Compound `O=C(c1ccccc1)N1CC2COCC(C2)C1` has a logP of 0.84.
Work on `O=C(c1ccccc1)N1CC2CCCC1(C(F)(F)F)C2` (configuration not stated) yielded a logP of 2.67.
Work on `O=C(NCCC(F)(F)F)c1ccccc1` yielded a logP of 1.93.
With `O=C(N[C@@H]1CC[C@H]1C(F)(F)F)c1ccccc1` the logP was 2.54.
Work on `O=C(Nc1ccccc1)C1CC1(F)F` (configuration not stated) yielded a logP of 2.07.
With `O=C(Nc1ccccc1)C1CC2(CCC2)C1` the logP was 3.27.
In the case of `O=C(N[C@H]1C[C@@H]2C[C@@H]2C1)c1ccccc1`, the logP is reported as 2.19.
Work on `O=C(Nc1ccccc1)[C@H]1C[C@@H]2[C@H](C1)C2(F)F` yielded a logP of 2.37.
`O=C(Nc1ccccc1)C1CC2(C1)CC(F)(F)C2` gave a logP of 2.93.
Work on `O=C(N[C@@H]1CC[C@H]1C(F)F)c1ccccc1` yielded a logP of 1.94.
`CNC(=O)c1ccccc1` gave a logP of 1.03.
In the case of `O=C(c1ccccc1)N1CCC1C(F)F` (configuration not stated), the logP is reported as 1.51.
`O=C(Nc1ccccc1)C1CCC(F)(F)C1` (configuration not stated) showed a logP of 2.5.
In the case of `O=C(c1ccccc1)N1C[C@@H](F)C[C@H](F)C1`, the logP is reported as 1.35.
With `O=C(NCCCC(F)F)c1ccccc1` the logP was 1.76.
For `O=C(c1ccccc1)N1CC[C@@H](F)[C@H](F)C1`, the logP was 1.26.
Compound `O=C(c1ccccc1)N1CCC(C(F)(F)F)C1` (configuration not stated) has a logP of 1.7.
`O=C(Nc1ccccc1)C1CC2(CC(F)C2)C1` (configuration not stated) gave a logP of 2.69.
In the case of `O=C(Nc1ccccc1)[C@H]1C[C@H](CF)C1`, the logP is reported as 2.14.
`O=C(Nc1ccccc1)[C@@H]1CC[C@@H]1F` showed a logP of 1.74.
`O=C(Nc1ccccc1)[C@@H]1C[C@H]1CF` gave a logP of 1.12.
With `O=C(c1ccccc1)N1CCC(C(F)(F)F)CC1` the logP was 2.2.
For `O=C(Nc1ccccc1)[C@H]1C[C@H](C(F)F)C1`, the logP was 2.39.
`O=C(NC1CC12CC2)c1ccccc1` (configuration not stated) showed a logP of 2.08.
With `O=C(NC1CC12CC2(F)F)c1ccccc1` (configuration not stated) the logP was 2.04.
Compound `O=C(Nc1ccccc1)[C@@H]1C[C@@H]2C[C@@H]2C1` has a logP of 2.92.
Compound `O=C(N[C@@H]1CC[C@@H]1F)c1ccccc1` has a logP of 1.57.
Work on `O=C(c1ccccc1)N1CC2COCC(C1)C2(F)F` yielded a logP of 1.19.
`O=C(Nc1ccccc1)C1(C(F)F)CCC1` gave a logP of 2.19.
With `O=C(c1ccccc1)N1CC2CC1C2` the logP was 1.47.
`O=C(c1ccccc1)N1C[C@@H](F)[C@H](F)C1` gave a logP of 1.08.
Compound `O=C(Nc1ccccc1)[C@@H]1C[C@H]1C(F)(F)F` has a logP of 2.98.
In the case of `O=C(Nc1ccccc1)[C@H]1C[C@H](F)C1`, the logP is reported as 2.
`O=C(NC1CCCC(F)(F)C1)c1ccccc1` (configuration not stated) gave a logP of 2.31.
`O=C(c1ccccc1)N1CCC(CF)CC1` gave a logP of 1.45.
In the case of `O=C(Nc1ccccc1)C1CCCCC(F)(F)C1` (configuration not stated), the logP is reported as 3.03.
`O=C(Nc1ccccc1)[C@H]1C[C@@H](C(F)F)C1` gave a logP of 2.23.
Work on `CC12CCC(CC1)CN2C(=O)c1ccccc1` yielded a logP of 2.66.
For `O=C(Nc1ccccc1)[C@H]1C[C@@H]2C[C@@H]2C1`, the logP was 2.87.
For `O=C(Nc1ccccc1)C12CC(CO1)C2`, the logP was 1.54.
`O=C(c1ccccc1)N1CC2CCC1C2` (configuration not stated) showed a logP of 1.65.
`O=C(Nc1ccccc1)[C@@H]1CC[C@H]1C(F)(F)F` showed a logP of 2.88.
In the case of `O=C(Nc1ccccc1)C1(CF)CCC1`, the logP is reported as 1.88.
In the case of `O=C(Nc1ccccc1)[C@@H]1CC[C@H]1C(F)F`, the logP is reported as 2.22.
Compound `O=C(Nc1ccccc1)C1CC12CC2` (configuration not stated) has a logP of 2.35.
`O=C(Nc1ccccc1)C1CCCC1` showed a logP of 2.68.
For `O=C(c1ccccc1)N1CC[C@@H](F)[C@@H](F)C1`, the logP was 1.15.
With `O=C(c1ccccc1)N1CCCC(F)(F)C1` the logP was 1.65.
`O=C(c1ccccc1)N1CC2CCC(C2)C1` showed a logP of 2.31.
`O=C(Nc1ccccc1)[C@@H]1CC[C@H]1CF` gave a logP of 2.11.
Work on `O=C(N[C@@H]1C[C@H]1CF)c1ccccc1` yielded a logP of 1.41.
Compound `O=C(NC1CCCCCC1)c1ccccc1` has a logP of 3.03.
`O=C(c1ccccc1)N1CC2CS(=O)(=O)CC(C1)C2(F)F` showed a logP of 0.2.
Work on `CCC(F)(F)CC(=O)Nc1ccccc1` yielded a logP of 2.26.
`O=C(NC1(C(F)F)CCC1)c1ccccc1` gave a logP of 2.48.
`O=C(NCCCCF)c1ccccc1` showed a logP of 1.56.
Work on `O=C(NC1CCC1)c1ccccc1` yielded a logP of 1.95.
In the case of `O=C(NC1CCC(F)(F)C1)c1ccccc1` (configuration not stated), the logP is reported as 2.02.
Compound `O=C(Nc1ccccc1)[C@@H]1CC[C@H]1F` has a logP of 2.04.
With `O=C(NCCF)c1ccccc1` the logP was 1.07.
In the case of `O=C(c1ccccc1)N1CC2CC(C1)CC(F)(F)C2`, the logP is reported as 1.59.
Compound `O=C(Nc1ccccc1)C1CCCCCC1` has a logP of 3.24.
`O=C(NC1CCCCC1)c1ccccc1` showed a logP of 2.72.
In the case of `O=C(Nc1ccccc1)C1CCCCCC1(F)F` (configuration not stated), the logP is reported as 2.9.
Compound `O=C(c1ccccc1)N1C[C@@H](F)[C@@H](F)C1` has a logP of 1.01.
Compound `O=C(c1ccccc1)N1CC(CF)C1` has a logP of 0.93.
Work on `CCCCC(=O)Nc1ccccc1` yielded a logP of 2.29.
In the case of `O=C(N[C@H]1C[C@@H](F)C1)c1ccccc1`, the logP is reported as 1.67.
In the case of `O=C(NC1CC2(CC(F)C2)C1)c1ccccc1` (configuration not stated), the logP is reported as 2.39.
For `O=C(c1ccccc1)N1CCC(C(F)F)CC1`, the logP was 1.67.
With `O=C(NC1CCCC(F)(F)CC1)c1ccccc1` (configuration not stated) the logP was 2.5.
With `O=C(Nc1ccccc1)[C@@H]1C[C@H]1C(F)F` the logP was 2.28.
`O=C(NC1CCCCCC1(F)F)c1ccccc1` (configuration not stated) gave a logP of 2.56.
With `O=C(Nc1ccccc1)C1CCC1(F)F` (configuration not stated) the logP was 2.03.
For `O=C(c1ccccc1)N1CCC1C(F)(F)F` (configuration not stated), the logP was 1.75.
`O=C(N[C@@H]1C[C@@H]2[C@H](C1)C2(F)F)c1ccccc1` showed a logP of 2.23.
`O=C(NC1CC2(CCC2)C1)c1ccccc1` gave a logP of 3.26.
For `O=C(Nc1ccccc1)C1CCCCC1(F)F` (configuration not stated), the logP was 2.5.
`O=C(c1ccccc1)N1CCCC(C(F)(F)F)C1` (configuration not stated) gave a logP of 2.21.
Work on `O=C(c1ccccc1)N1CCCC1C(F)(F)F` (configuration not stated) yielded a logP of 2.12.
In the case of `O=C(CCCC(F)F)Nc1ccccc1`, the logP is reported as 2.06.
For `O=C(NC1(C(F)(F)F)CCC1)c1ccccc1`, the logP was 2.51.
`O=C(c1ccccc1)N1CC2CC(C1)CS(=O)(=O)C2` showed a logP of -0.34.
Work on `O=C(NC1(CF)CCC1)c1ccccc1` yielded a logP of 2.03.
With `O=C(c1ccccc1)N1CCCCC1` the logP was 1.39.
`CC12CC(CN1C(=O)c1ccccc1)C2` gave a logP of 1.75.
In the case of `O=C(Nc1ccccc1)[C@H]1C[C@@H](C(F)(F)F)C1`, the logP is reported as 2.72.
Compound `O=C(NC1C(F)(F)C12CC2)c1ccccc1` (configuration not stated) has a logP of 2.14.
In the case of `O=C(Nc1ccccc1)C1CCC(F)(F)CC1`, the logP is reported as 2.63.
`O=C(c1ccccc1)N1CC2CCC1CC2` showed a logP of 2.01.
Compound `O=C(c1ccccc1)N1CC(C(F)F)C1` has a logP of 1.4.
With `O=C(N[C@@H]1C[C@H]1C(F)(F)F)c1ccccc1` the logP was 1.79.
`O=C(c1ccccc1)N1CC2CCC1(C(F)(F)F)C2` (configuration not stated) showed a logP of 2.2.
For `O=C(NC1CC(F)(F)C1)c1ccccc1`, the logP was 1.94.
Work on `O=C(c1ccccc1)N1CC2CC1(C(F)(F)F)C2` yielded a logP of 1.93.
In the case of `C[C@@H]1C[C@H]1C(=O)Nc1ccccc1`, the logP is reported as 2.42.
`O=C(Nc1ccccc1)C1CCCC1(F)F` (configuration not stated) gave a logP of 2.25.
In the case of `O=C(Nc1ccccc1)C1CCC1`, the logP is reported as 2.26.
`O=C(Nc1ccccc1)C1CC12CC2(F)F` (configuration not stated) showed a logP of 2.66.
Compound `O=C(c1ccccc1)N1CCCC(C(F)F)C1` (configuration not stated) has a logP of 1.73.
Work on `O=C(c1ccccc1)N1CC2CCC1(C(F)(F)F)CC2` yielded a logP of 2.51.
`O=C(NC1CCCC1(F)F)c1ccccc1` (configuration not stated) gave a logP of 1.87.
For `O=C(c1ccccc1)N1CC2CCCC(C2)C1`, the logP was 2.36.
With `O=C(Nc1ccccc1)[C@H]1C[C@@H](F)C1` the logP was 1.86.
With `O=C(N[C@H]1C[C@H](CF)C1)c1ccccc1` the logP was 1.78.
With `O=C(Nc1ccccc1)C1CCCC(F)(F)C1` (configuration not stated) the logP was 2.72.
Work on `O=C(Nc1ccccc1)[C@H]1C[C@H](C(F)(F)F)C1` yielded a logP of 3.02.
`O=C(Nc1ccccc1)C1C(F)(F)C12CC2` (configuration not stated) showed a logP of 2.42.
With `O=C(NCC(F)F)c1ccccc1` the logP was 1.37.
With `O=C(Nc1ccccc1)C1CCCC(F)(F)CC1` (configuration not stated) the logP was 2.95.
For `O=C(c1ccccc1)N1CCCC1`, the logP was 1.19.
`O=C(c1ccccc1)N1CCCC(F)C1` (configuration not stated) showed a logP of 1.26.
`O=C(NC1CCCC1)c1ccccc1` showed a logP of 2.23.
For `O=C(N[C@@H]1C[C@@H]1CF)c1ccccc1`, the logP was 1.12.
`O=C(Nc1ccccc1)[C@H]1C[C@H]1C(F)(F)F` showed a logP of 2.12.
`O=C(c1ccccc1)N1CCCC(CF)C1` (configuration not stated) gave a logP of 1.52.
With `O=C(c1ccccc1)N1CCC1CF` (configuration not stated) the logP was 1.4.
`C[C@@H]1C[C@@H]1C(=O)Nc1ccccc1` showed a logP of 2.31.
For `O=C(c1ccccc1)N1CCCC1C(F)F` (configuration not stated), the logP was 1.88.
`O=C(NC1CC2(C1)CC(F)(F)C2)c1ccccc1` showed a logP of 2.53.
Compound `O=C(Nc1ccccc1)[C@@H]1C[C@@H]2[C@H](C1)C2(F)F` has a logP of 2.88.
With `O=C(N[C@@H]1C[C@H]1C(F)F)c1ccccc1` the logP was 1.64.
With `O=C(NC1CCCCC(F)(F)C1)c1ccccc1` (configuration not stated) the logP was 2.57.
`C[C@@H]1C[C@@H]1NC(=O)c1ccccc1` showed a logP of 1.64.
With `O=C(NC1CCC(F)(F)CC1)c1ccccc1` the logP was 2.32.
In the case of `O=C(NCCC(F)F)c1ccccc1`, the logP is reported as 1.49.
`O=C(N[C@H]1C[C@@H]2[C@H](C1)C2(F)F)c1ccccc1` gave a logP of 2.47.
`O=C(NC1CCC1(F)F)c1ccccc1` (configuration not stated) showed a logP of 1.7.
With `O=C(Nc1ccccc1)C1CCCCC1` the logP was 2.88.
`O=C(N[C@@H]1CC[C@H]1CF)c1ccccc1` gave a logP of 1.85.
With `CC12CCCC(CN1C(=O)c1ccccc1)C2` (configuration not stated) the logP was 2.41.
With `O=C(c1ccccc1)N1CC2CCCC1C2` (configuration not stated) the logP was 1.88.
In the case of `O=C(c1ccccc1)N1CC(F)(F)C1`, the logP is reported as 1.34.
Work on `O=C(c1ccccc1)N1CCC(C(F)F)C1` (configuration not stated) yielded a logP of 1.4.
`O=C(N[C@@H]1CC[C@H]1F)c1ccccc1` gave a logP of 1.64.
In the case of `O=C(N[C@H]1C[C@H](F)C1)c1ccccc1`, the logP is reported as 1.71.
With `O=C(Nc1ccccc1)[C@@H]1C[C@@H]1CF` the logP was 1.88.
With `O=C(c1ccccc1)N1CC(F)C1` the logP was 0.94.
In the case of `O=C(NCCCF)c1ccccc1`, the logP is reported as 1.28.
